According to ChEMBL document CHEMBL6096687, “In Vivo Stability Improvement of Astatobenzene Derivatives by Introducing Neighboring Substituents” (J Med Chem, 2025):

Assays:
[1] = Stability in mouse plasma assessed as parent compound remaining measured after 1 hrs by TLC analysis; type: ADME, cell-free; conditions: read-out: Stability
[2] = Drug accumulation in male ddY mouse liver at 37 kBq, iv measured after 10 to 240 mins by autowell-gamma counter analysis; type: ADME, organism-based; conditions: in vivo, time 10-240 min
[3] = Drug accumulation in male ddY mouse intestine at 37 kBq, iv measured after 10 to 240 mins by autowell-gamma counter analysis; type: ADME, organism-based; conditions: in vivo, time 10-240 min
[4] = Drug accumulation in male ddY mouse kidney at 37 kBq, iv measured after 10 to 240 mins by autowell-gamma counter analysis; type: ADME, organism-based; conditions: in vivo, time 10-240 min
[5] = In vivo stability in male ddY mouse stomach assessed as decrease in radioactivity at 37 kBq, iv measured after 10 to 240 mins by autowell-gamma counter analysis; type: ADME, organism-based; conditions: time 10-240 min
[6] = In vivo stability in male ddY mouse thyroid gland assessed as decrease in radioactivity at 37 kBq, iv measured after 10 to 240 mins by autowell-gamma counter analysis; type: ADME, organism-based; conditions: time 10-240 min
Albumin = Albumin (Homo sapiens, UniProt P02768); assay: Binding affinity to human serum albumin assessed as binding constant by ITC analysis; type: ADME; conditions: isolated protein
Chain of Albumin (P02768 whole entry): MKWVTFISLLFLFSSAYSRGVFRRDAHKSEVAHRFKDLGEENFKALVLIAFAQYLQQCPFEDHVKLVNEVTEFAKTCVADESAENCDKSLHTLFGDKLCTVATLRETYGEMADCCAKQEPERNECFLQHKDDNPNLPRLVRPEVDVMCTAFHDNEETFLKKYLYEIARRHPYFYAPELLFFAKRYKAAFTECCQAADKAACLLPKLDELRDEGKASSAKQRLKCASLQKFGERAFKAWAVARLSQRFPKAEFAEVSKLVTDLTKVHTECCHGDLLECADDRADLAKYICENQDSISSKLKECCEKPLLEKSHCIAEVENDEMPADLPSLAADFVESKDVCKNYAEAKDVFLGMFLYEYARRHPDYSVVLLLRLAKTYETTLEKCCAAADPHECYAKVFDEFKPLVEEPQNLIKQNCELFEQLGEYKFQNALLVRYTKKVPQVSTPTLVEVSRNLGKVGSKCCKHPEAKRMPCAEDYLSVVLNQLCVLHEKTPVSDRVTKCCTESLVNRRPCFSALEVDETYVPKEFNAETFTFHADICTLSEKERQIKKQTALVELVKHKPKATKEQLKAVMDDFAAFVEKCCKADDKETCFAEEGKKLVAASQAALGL

[7] = In vivo metabolic stability in male ddY mouse urine assessed as intact compound at 37 kBq, iv measured after 1 hrs by RP-HPLC analysis; type: ADME, organism-based; conditions: read-out: Stability

Drug uptake [2]	Drug uptake [3]	Drug uptake [4]	Kb (Albumin) [M⁻¹]	SMILES	remaining at 1 h [1] [%]	Stability [5]	Stability [6]	remaining at 1 h [7] [%]
Active	Active	Active		CN(C)C(=O)c1cc(C(=O)NCC(=O)O)ccc1[125I]	96.9			
				O=C(O)CNC(=O)c1cc(CO)c([211At])c(CO)c1	88.7	Unstable	Unstable	
		Active		O=C(O)CNC(=O)c1ccc([125I])cc1	98.4	Stable	Stable	
Active	Active	Active		O=C(O)CNC(=O)c1cc(CO)c([125I])c(CO)c1	95.8	Stable	Stable	
			1000	O=C(O)CNC(=O)c1ccccc1 [HIPPURIC ACID]				
				COCOCc1cc(C(=O)NCC(=O)O)cc(COCOC)c1[211At]	81.5	Unstable	Unstable	
Active	Active	Active		CN(C)C(=O)c1cc(C(=O)NCC(=O)O)cc(C(=O)N(C)C)c1[125I]	92.7	Stable	Stable	75.7
				CN(C)C(=O)c1cc(C(=O)NCC(=O)O)ccc1[211At]	95.8	Unstable	Unstable	
				COCOCc1cc(C(=O)NCC(=O)O)cc(COCOC)c1[125I]	92.9	Stable	Stable	
				O=C(O)CNC(=O)c1ccc([211At])cc1	81.4	Unstable	Unstable	

SMILES	Drug uptake [2]	Drug uptake [3]	Drug uptake [4]	Kb (Albumin) [M⁻¹]	remaining at 1 h [1] [%]	Stability [5]	Stability [6]	remaining at 1 h [7] [%]
CN(C)C(=O)c1cc(C(=O)NCC(=O)O)cc(C(=O)N(C)C)c1[211At]	Active	Active			92	Stable	Stable	86.4
